This is an account of results in patent US20260174791A1, “MACROPHAGE MIGRATION INHIBITORY FACTOR (MIF) TARGETING FOR THE TREATMENT OF NON-SMALL CELL LUNG CANCER” (Board of Regents, The University of Texas System, priority 2022, published 2026).

Assay [1] deals with lung cancer patients, EGFR or KRAS mutation. Particulars: patients who harbor an EGFR mutation; cited from earlier work.
In assay [2] the test system is NSCLC patients with STK11/LKB1 and/or KEAP1 mutations. Kind of assay: Clinical data, pembrolizumab plus first-line chemotherapy in NSCLC patients. It counts as in vivo, human. From the text: FIG. 1A is a graph illustrating response rates to pemetrexed/platin/pembrolizumab (PCP) chemo-immunotherapy in STK11 and KEAP1-defined wild type (wt) and mutant subgroups. FIG. 1B is a graph illustrating response rates to pemetrexed/platin/pembrolizumab (PCP) chemo-immunotherapy in STK11 and KEAP1-defined wild type (wt) and mutant subgroups. […] FIG. 1D a Kaplan-Mayer graph illustrating overall survival of STK11/LKB1 and KEAP1 mutant or wt defined patients.

On to `C#Cc1cccc(Nc2ncnc3cc(OCCOC)c(OCCOC)cc23)c1` [erlotinib], for which the response rate in assay [1] was 60%.
As to pembrolizumab, the “refractory disease on pembrolizumab plus standard care first-line chemotherapies” value in assay [2] (NSCLC patients (n=139), STK11/LKB1 and/or KEAP1 mutant vs wild type) is recorded as “higher percentage of patients with refractory diseases”. In addition, in assay [2] (patients with STK11 and/or KEAP1 genomic alterations, vs chemotherapy alone), the “clinical benefit (survival) of adding pembrolizumab to chemotherapy” value is “did not result in clinical benefit”.
